Test results reported in patent publication US20210275606A1, “COMPOSITIONS COMPRISING BACTERIAL STRAINS” (4D Pharma Research Limited, priority 2018, published 2021).
Where “and” joins values, the source holds several entries; their conditions need not be identical. Equal values may be shown once. Where a name gives a salt, the structure may show the parent alone.

Experiments:
[1] = tested on: graft versus host disease (GVHD) induced in Balb/C mice; assay: Graft versus host disease (GVHD) induced in Balb/C mice; type: in vivo, mouse; settings: for mean body weight over the course of the study: compared with Group 4 (PBS, TBI + allogeneic transfer), daily dosing Days -14 to 30
Source text: Male Balb/C mice (BALB/cAnNCrl; 6-8 weeks old; n=125) with an average starting body weight (±SEM) of 20.67±0.11 g were obtained from Charles River Laboratories (Wilmington, Mass.). An additional n=75 male C57Bl/6 (C57Bl/6NCrl; 6-8 weeks old) were obtained from the same vendor. Animals were acclimatized prior to study commencement. During this period, the animals were observed daily in order to reject any that presented in poor condition.
Animals were randomized into 5 groups at the start of the study. Each group comprised between 8 and 12 mice. Each group was further sub-divided into cohorts A and B (n=4-6 mice per group per cohort); cohorts had staggered disease timelines.
All animals were weighed and randomized by weight into treatment groups prior to study start. Prior to GVHD induction on Days −1 and 0, all animals were pre-treated (P0) with PBS (Groups 1-4), bacterial strain 43043 (Group 5), or Butyrate salt control (Group 6) daily starting on Day −14. Butyrate was used as a positive control as butyrate deficit has been identified in the gut of GVHD patients. Treatments were administered to groups at random, and group treatments were alternated daily to prevent the same groups from being treated at the same time each day. Once test article dosing had begun, care was taken to minimize group cross-contamination: gloves were changed by the technician between treatment groups, and were sprayed with 70% isopropyl alcohol between each cage of the same group.
GVHD was induced in n=84 Balb/C mice (Groups 4-10) using a single acute dose of 8 Gy of total body irradiation (TBI) on Day −1. On Day 0, these recipient mice were given an intravenous injection of a combination of T cell depleted bone marrow cells and splenic cells from donor C57Bl/6 mice in PBS. Bone marrow cells were isolated using standard flushing practices, and were T cell depleted using the cell surface T cell antigen CD3, with a CD3-biotin kit (Miltenyi Biotec catalog 130-094-973). Splenocytes were isolated using Miltenyi GentleMACS Dissociators. Animals in Group 1 served as naïve controls and received neither TBI nor cell transfer. […] Animals in Group 3 served as syngeneic adoptive transfer controls; these animals received 8 Gy of TBI on Day −1, and an intravenous injection of a combination of T cell depleted bone marrow cells and splenic cells from donor Balb/C mice in sterile PBS.
Daily test article dosing continued for the duration of the study (Days −14 to 30). Animal survival was recorded daily, as an indication of GVHD severity. […] The GVHD score was assessed by a standard scoring system based on five criteria (Table 21): percentage of weight change, posture (hunching), activity, fur texture, and skin integrity (maximum score=10). […]

[2] = tested on: DSS-induced colitis mouse model; assay: DSS-induced colitis mouse model, ileum histology; type: in vivo; set-up: key to Erosion (epithelial cell damage) / Depletion of goblet cells / Edema / Leucocytes Infiltration: 0: None; Minimal <10%; Mild 10-25%; 3: Moderate 26-50%; 4: Marked >50%; COLITIS SCORING (sum) / COLITIS SCORING mean ± SEM: scale not given here; settings: Day 7; for COLITIS SCORING mean ± SEM: group mean, n = 9, 3% DSS; for Depletion of goblet cells / Edema / Erosion (epithelial cell damage) / Leucocytes Infiltration: ileum histology score 0-4, individual mouse; for COLITIS SCORING (sum): sum of the four ileum histology scores, individual mouse
Procedure: The objective of this study was to determine the prophylactic efficacy of R. intestinalis strain 43043 in a DSS-induced colitis mouse model, upon repeated oral administration.
Tacrolimus was dosed at 1 mg/kg/day
Valproic acid was dosed at 200 mg/kg/day
PBS, YCFA and bacterial cultures were dosed at 200 μL/day
Each of sixty three, 6 week old healthy male C57BL/6J mice were obtained from Charles River (France) and individually identified and labelled with a specific code. Each treatment group (9 animals/group) were housed in three different cages.
Days −7 to Day −1: Treatment with bacteria and reference substances according the treatment table above • Once daily oral administration of PBS, YCF A or Bacteria—200 μL per mouse • Once daily oral administration of Valproic acid at 200 mg/kg/day under a volume of 10 mL/kg From Day O to Day+7: DSS administration • Administration of 3% DSS in the drinking water From Day O to Day+6: Treatment with bacteria and reference substances • Once daily oral administration of PBS, YCFA or Bacteria—200 μL per mouse • Once daily oral administration of Valproic acid—200 mg/kg in sterile distilled water—10 mL/kg • Once daily SC administration of Tacrolimus—1 mg/kg in sterile 1% Tween80, 0.9% NaCl—10 mL/kg Day+7: Sacrifice of all groups and tissue harvesting • Euthanasia of animals was performed under gas anesthesia (Isoflurane) followed by exsanguination and cervical dislocation. Euthanasia methods used are those recommended for mice and rats by European directive 20 I 0/63/CE and the procedure describing euthanasia methods was approved by IACUC. • Laparotomy and ileum harvesting, just upstream of the caecum (from 0.5 cm and on)—all tissue harvested from exactly the same area between all mice: • 1.5 cm swiss-rolled ileum was harvested for histology, the closest to the caecum
Ileum Swiss-rolls specimens were embedded in paraffin and sections of 5 μm thickness were cut and mounted on SuperFrost Ultra plus glass slides. HP (Hematoxylin-Phloxin) staining & AB-PAS (Alcian Blue-Periodic Acid Schiff) staining were performed to visualize histomorphologic changes. A scoring based on edema, erosion, loss of crypts/goblet cells and infiltrates was established on each animal, using the criteria in the following table: […]

HDAC [3] = assay: Global HDAC activity analysis in HT-29 cells; type: cell-based; settings: for inhibition of total HDAC activity: whole HT-29 cells and HT-29 cell lysate tested, sentence does not say which
Procedure: Pure cultures of 43043 bacteria were grown anaerobically in YCFA broth until they reached their stationary growth phase. Cultures were centrifuged at 5,000×g for 5 minutes and the cell-free supernatant (CFS) was filtered using a 0.2 μM filter (Millipore, UK). 1 mL aliquots of the CFS were stored at −80° C. until use. Sodium butyrate, hexanoic and valeric acid were obtained from Sigma Aldrich (UK) and suspensions were prepared in YCFA broth.
(§1) Whole cells and cell free supernatants of stationary phase 43043 cultures were isolated by centrifugation and filtering in a 0.22 uM filter. HT-29 cells were used 3 days' post confluence and stepped down in 1 mL DTS 24 hours prior to commencement of the experiment. The HT-29 cells were challenged with 10% cell free supernatant diluted in DTS and this was left to incubate for 48 hours. […] were then extracted using the Sigma Aldrich Nuclease extraction kit and samples were snap frozen prior to HDAC activity measurement. HDAC activity kit was assessed fluorometrically using the Sigma Aldrich (UK) kit.
(§2) To investigate which metabolites were responsible for the strain-induced HDAC inhibition, different concentrations of hexanoic acid, valeric acid and sodium butyrate were measured for their HDAC inhibition on whole HT-29 cells and on HT-29 cell lysate.

HDAC [4] = assay: HDAC inhibition on HT-29 cell lysate; type: biochemical
Procedure: as §1, §2

Compound: CCCC(=O)O [Butyrate salt]
- Mean colitis severity scores (endoscopy) ([1]; Day 29, as compared to naïve mice (Group 1)): increased
- mean GVHD scores ([1]; Days 0 to 30, AUC, compared to Group 3 (syngeneic transfer), with and without scores carried forward): significantly increased mean GVHD scores as compared to Group 3
- mean body weight over the course of the study [1]: No significant differences in mean body weight

Compound: C=CC[C@@H]1/C=C(\C)C[C@H](C)C[C@H](OC)[C@H]2O[C@@](O)(C(=O)C(=O)N3CCCC[C@H]3C(=O)O[C@H](/C(C)=C/[C@@H]3CC[C@@H](O)[C@H](OC)C3)[C@H](C)[C@@H](O)CC1=O)[C@H](C)C[C@@H]2OC [Tacrolimus]
- mean body weight over the course of the study [1]: same trend was observed
- leukocyte infiltration in the ileum ([2]; group comparison in text, 3% DSS): reduced leukocyte infiltration comparable to controls
- COLITIS SCORING mean ± SEM [2]: 0.44 ±0.08
- Depletion of goblet cells ([2]; 3% DSS): 0
- Edema ([2]; 3% DSS): 0
- Erosion (epithelial cell damage) ([2]; 3% DSS): 0
- Leucocytes Infiltration ([2]; 3% DSS): 0 (6×) and 2 (Mild 10-25%) and 1 (Minimal <10%) (2×)
- COLITIS SCORING (sum) ([2]; 3% DSS): 0 (6×) and 2 and 1 (2×)

Compound: CCCCC(=O)O [Valeric acid, valeric acid]
- inhibition of total HDAC activity (HDAC [3]): inhibited total HDAC activity

Compound: CCCC(CCC)C(=O)O [Valproic acid, Valproic Acid]
- COLITIS SCORING mean ± SEM [2]: 0.67 ± 0.10
- Depletion of goblet cells ([2]; 3% DSS): 0
- Edema ([2]; 3% DSS): 0
- Erosion (epithelial cell damage) ([2]; 3% DSS): 0
- Leucocytes Infiltration ([2]; 3% DSS): 2 (Mild 10-25%) (2×) and 1 (Minimal <10%) (2×) and 0 (5×)
- COLITIS SCORING (sum) ([2]; 3% DSS): 2 (2×) and 1 (2×) and 0 (5×)

Compound: CCCCCC(=O)O [hexanoic acid]
- inhibition of total HDAC activity (HDAC [3]): did show significant inhibitory activity

Compound: CCCC(=O)[O-].[Na+] [sodium butyrate, Sodium butyrate]
- inhibition of HDAC activity (HDAC [3]; on whole HT-29 cells): significant (P<0.05) inhibition of HDAC activity
- inhibition of HDAC activity (HDAC [4]): significant (P<0.05) inhibition of HDAC activity
